Laboratory results published in patent US20240083892A1 (BISICHEM CO., LTD., priority 2021, published 2024).

Columns and labels:
[1] = biological target: T1, RIPK1 (Homo sapiens, UniProt Q13546); experiment: Cell-based necroptosis assay for RIPK1 activity (cell viability by CCK-8); conditions: HT-29 cells; Z-VAD-FMK 20 μM, human TNFα 10 ng/ml, SM-164 100 nM; 24 h; read-out: Cell-base RIPK1 activity: Necroptosis
T1 construct: endogenous in cells; host or cells: HT-29 (KCLB 30038)
T1 sequence (Q13546 1-671): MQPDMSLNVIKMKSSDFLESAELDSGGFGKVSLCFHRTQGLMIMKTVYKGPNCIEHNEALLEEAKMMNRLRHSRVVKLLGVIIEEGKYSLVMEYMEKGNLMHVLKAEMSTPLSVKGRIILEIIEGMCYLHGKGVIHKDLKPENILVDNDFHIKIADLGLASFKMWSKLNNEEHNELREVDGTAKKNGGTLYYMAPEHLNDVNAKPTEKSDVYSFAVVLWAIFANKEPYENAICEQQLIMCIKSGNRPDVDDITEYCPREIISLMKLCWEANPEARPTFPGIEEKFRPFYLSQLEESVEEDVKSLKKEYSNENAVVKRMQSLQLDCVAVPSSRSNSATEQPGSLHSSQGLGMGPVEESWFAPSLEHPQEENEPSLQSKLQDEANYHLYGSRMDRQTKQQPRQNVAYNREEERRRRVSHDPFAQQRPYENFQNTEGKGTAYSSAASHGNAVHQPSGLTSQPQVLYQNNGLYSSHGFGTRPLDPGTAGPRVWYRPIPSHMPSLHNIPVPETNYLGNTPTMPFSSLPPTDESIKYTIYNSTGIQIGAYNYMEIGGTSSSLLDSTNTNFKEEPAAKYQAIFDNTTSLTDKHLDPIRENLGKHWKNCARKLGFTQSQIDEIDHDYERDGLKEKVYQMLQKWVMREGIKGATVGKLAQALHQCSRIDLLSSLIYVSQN
Experimental: (§1) Human colon carcinoma cell HT-29 (KCLB 30038), BV2 mouse microglial cell (cell was a kind gift from Dr. Nak-Yun Sung, Senior researcher at Korea Prime Pharmacy CO., LTD.) and human microglial cell HMC3 (ATCC® CRL-3304™). HT-29 cell was grown in Roswell Park Memorial Institute (RPMI) 1640, BV2 cell was grown in Dulbecco's Modified Eagle's Medium (DMEM) and HMC3 cell was grown in Minimum Essential Media Eagle (MEM) supplemented with 10% fetal bovine serum and 1% mixture of penicillin and streptomycin (Gibco). Cells were maintained at 37° C. in a humidified 5% CO2 atmosphere.
To measure the activity of RIPK1 inhibitor in necroptotic cells, HT-29 cells were treated by control DMSO, human TNFα (Peprotech, Rocky Hill, USA), SM-164 (Biovision, California, USA) and a pan-caspase inhibitor Z-VAD-FMK (Invivogen, San Diego, USA). Cells were pretreated with Z-VAD-FMK 20 μM. After 30 min, human TNFα 10 ng/ml, SM-164 100 nM and RIPK1 Inhibitor (0.0001, 0.001, 0.01, 0.02, 0.05, 0.1, 1, 10 uM) were treated for 24 h. Cell viability was measured by Cell Counting Kit 8 (CCK-8) (Dong-in, Seoul, Korea).

[2] = biological target: T1, RIPK1; experiment: Immunoblotting of TNFα induced phospho-RIPK1 (ser 166) levels; assay type: cell-based; conditions: HMC3 cells; Z-VAD-FMK, human TNFα 20 ng/ml, SM-164 100 nM; 7 h, serum free media; read-out: Cell-base RIPK1 activity: phspho-RIPK1 (Ser166)
Experimental: as §1
Biological activity of the compounds of RIPK1 inhibitor was determined by measuring their ability to inhibitor TNFα induced phospho-RIPK1 (ser 166) levels, phospho-RIPK3 levels, phospho-MLKL levels in HMC3 cells. Cells were pretreated with Z-VAD-FMK […]. After 30 min, human TNFα 20 ng/ml, SM-164 100 nM and RIPK1 inhibitor (0.1, 1, 10 nM) were treated for 7 h under serum free media. Cells were lysed with cold lysis buffer containing 25 mM HEPES pH 7.6, […] NaCl, 1% NP40, 1% sodium deoxycholate, 0.1% SDS, and protease inhibitor mixture (Bimake, Houston, USA) using sonicators. The cells were centrifuged at 15,000 rpm, 4° C. for 5 min. After protein concentration of the lysates (supernatants) was quantified using BCA assay (Thermo Fisher Scientific, Waltham, USA), lysates were mixed with LDS sample buffer and heating at […] for 10 min. (Invitrogen, California, USA). […] The membranes are placed in an image analyzer (Imagequant, LAS 500, GE Healthcare), connected to a computer which allows the image generation (software Image reader LAS 500).

In the case of `CN1C(=O)[C@@H](NC(=O)n2cc(Cc3cccc(F)c3)cn2)COc2ccc(OCCCC3CCCCC3)cc21` [Example 16, (S)—N-(7-(3-cyclohexylpropoxy)-5-methyl-4-oxo-2,3,4,5-tetrahydrobenzo[b][1,4]oxazepin-3-yl)-4-(3-fluorobenzyl)-1H-pyrazole-1-carboxamide], the IC50 [1] is reported as < 10 nM and the IC50 [2] is reported as < 10 nM.

`CN1C(=O)[C@@H](NC(=O)n2cc(Cc3cccc(F)c3)cn2)COc2ccc(OCCN3CCC(C)(O)CC3)cc21` [Example 18, (S)-4-(3-fluorobenzyl)-N-(7-(2-(4-hydroxy-4-methylpiperidin-1-yl)ethoxy)-5-methyl-4-oxo-2,3,4,5-tetrahydrobenzo[b][1,4]oxazepin-3-yl)-1H-pyrazole-1-carboxamide] was tested, and the IC50 [1] was < 10 nM and the IC50 [2] was < 10 nM.

`CN1C(=O)[C@@H](NC(=O)n2cc(Cc3cccc(F)c3)cn2)COc2ccc(OCCOCCO)cc21` [Example 19, (S)-4-(3-fluorobenzyl)-N-(7-(2-(2-hydroxyethoxy)ethoxy)-5-methyl-4-oxo-2,3,4,5-tetrahydrobenzo[b][1,4]oxazepin-3-yl)-1H-pyrazole-1-carboxamide] was tested, and the IC50 [1] was < 10 nM and the IC50 [2] was < 10 nM.

For `CN1C(=O)[C@@H](NC(=O)n2cc(Cc3cccc(F)c3)cn2)COc2ccc(OCC(C)(C)O)cc21` [Example 20, (S)-4-(3-fluorobenzyl)-N-(7-(2-hydroxy-2-methylpropoxy)-5-methyl-4-oxo-2,3,4,5-tetrahydrobenzo[b][1,4]oxazepin-3-yl)-1H-pyrazole-1-carboxamide], the IC50 [1] was < 10 nM and the IC50 [2] was < 10 nM.

`CN1C(=O)[C@@H](NC(=O)n2cc(Cc3cccc(F)c3)cn2)COc2ccc(OCCC(C)(C)O)cc21` [Example 21, (S)-4-(3-fluorobenzyl)-N-(7-(3-hydroxy-3-methylbutoxy)-5-methyl-4-oxo-2,3,4,5-tetrahydrobenzo[b][1,4]oxazepin-3-yl)-1H-pyrazole-1-carboxamide] was tested, and the IC50 [1] was < 10 nM and the IC50 [2] was < 10 nM.

For `CN1C(=O)[C@@H](NC(=O)n2cc(Cc3cccc(F)c3)cn2)COc2ccc(OCC#CC(C)(C)O)cc21` [Example 22, (S)-4-(3-fluorobenzyl)-N-(7-((4-hydroxy-4-methylpent-2-yn-1-yl)oxy)-5-methyl-4-oxo-2,3,4,5-tetrahydrobenzo[b][1,4]oxazepin-3-yl)-1H-pyrazole-1-carboxamide], the IC50 [1] was < 10 nM and the IC50 [2] was < 10 nM.

In the case of `CN1C(=O)[C@@H](NC(=O)n2cc(Cc3cccc(F)c3)cn2)COc2ccc(OCC#CC3(O)CCCCC3)cc21` [Example 23, (S)-4-(3-fluorobenzyl)-N-(7-((3-(1-hydroxycyclohexyl)prop-2-yn-1-yl)oxy)-5-methyl-4-oxo-2,3,4,5-tetrahydrobenzo[b][1,4]oxazepin-3-yl)-1H-pyrazole-1-carboxamide], the IC50 [1] is reported as < 10 nM and the IC50 [2] is reported as < 10 nM.

`CN1C(=O)[C@@H](NC(=O)n2cc(Cc3cccc(F)c3)cn2)COc2ccc(OCC#CC3(O)CCC3)cc21` [Example 24, (S)-4-(3-fluorobenzyl)-N-(7-((3-(1-hydroxycyclobutyl)prop-2-yn-1-yl)oxy)-5-methyl-4-oxo-2,3,4,5-tetrahydrobenzo[b][1,4]oxazepin-3-yl)-1H-pyrazole-1-carboxamide] was tested, and the IC50 [1] was < 10 nM and the IC50 [2] was < 10 nM.

For `CN1C(=O)[C@@H](NC(=O)n2cc(Cc3cccc(F)c3)cn2)COc2ccc(OCC#Cc3cccnc3)cc21` [Example 25, (S)-4-(3-fluorobenzyl)-N-(5-methyl-4-oxo-7-((3-(pyridin-3-yl)prop-2-yn-1-yl)oxy)-2,3,4,5-tetrahydrobenzo[b][1,4]oxazepin-3-yl)-1H-pyrazole-1-carboxamide], the IC50 [1] was < 10 nM and the IC50 [2] was < 10 nM.

For `CN1C(=O)[C@@H](NC(=O)n2cc(Cc3cccc(F)c3)cn2)COc2ccc(OCCCC(C)(C)O)cc21` [Example 26, (S)-4-(3-fluorobenzyl)-N-(7-((4-hydroxy-4-methylpentyl)oxy)-5-methyl-4-oxo-2,3,4,5-tetrahydrobenzo[b][1,4]oxazepin-3-yl)-1H-pyrazole-1-carboxamide], the IC50 [1] was < 10 nM and the IC50 [2] was < 10 nM.

`CN1C(=O)[C@@H](NC(=O)n2cc(Cc3cccc(F)c3)cn2)COc2ccc(OCCCC3(O)CCCCC3)cc21` [Example 27, (S)-4-(3-fluorobenzyl)-N-(7-(3-(1-hydroxycyclohexyl)propoxy)-5-methyl-4-oxo-2,3,4,5-tetrahydrobenzo[b][1,4]oxazepin-3-yl)-1H-pyrazole-1-carboxamide] was tested, and the IC50 [1] was < 10 nM and the IC50 [2] was < 10 nM.

With `CN1C(=O)[C@@H](NC(=O)n2cc(Cc3cccc(F)c3)cn2)COc2ccc(OCCCC3(O)CCC3)cc21` [Example 28, (S)-4-(3-fluorobenzyl)-N-(7-(3-(1-hydroxycyclobutyl)propoxy)-5-methyl-4-oxo-2,3,4,5-tetrahydrobenzo[b][1,4]oxazepin-3-yl)-1H-pyrazole-1-carboxamide] the IC50 [1] was < 10 nM and the IC50 [2] was < 10 nM.

In the case of `CN1C(=O)[C@@H](NC(=O)n2cc(Cc3cccc(F)c3)cn2)COc2ccc(OCCCc3cccnc3)cc21` [Example 29, (S)-4-(3-fluorobenzyl)-N-(5-methyl-4-oxo-7-(3-(pyridin-3-yl)propoxy)-2,3,4,5-tetrahydrobenzo[b][1,4]oxazepin-3-yl)-1H-pyrazole-1-carboxamide], the IC50 [1] is reported as < 10 nM and the IC50 [2] is reported as < 10 nM.

For `CN1C(=O)[C@@H](NC(=O)n2cc(Cc3cccc(F)c3)cn2)COc2ccc(OC3CCCCC3)cc21` [Example 30, (S)—N-(7-(cyclohexyloxy)-5-methyl-4-oxo-2,3,4,5-tetrahydrobenzo[b][1,4]oxazepin-3-yl)-4-(3-fluorobenzyl)-1H-pyrazole-1-carboxamide], the IC50 [1] was < 10 nM and the IC50 [2] was < 10 nM.

`CN1C(=O)[C@@H](NC(=O)n2cc(Cc3cccc(F)c3)cn2)COc2ccc(OC3CCC(C)(C)CC3)cc21` [Example 31, (S)—N-(7-((4,4-dimethylcyclohexyl)oxy)-5-methyl-4-oxo-2,3,4,5-tetrahydrobenzo[b][1,4]oxazepin-3-yl)-4-(3-fluorobenzyl)-1H-pyrazole-1-carboxamide] was tested, and the IC50 [1] was < 10 nM and the IC50 [2] was < 10 nM.

In the case of `CN1C(=O)[C@@H](NC(=O)n2cc(Cc3cccc(F)c3)cn2)COc2ccc(O[C@H]3CC[C@@H](O)CC3)cc21` [Example 34, 4-(3-fluorobenzyl)-N—((S)-7-(((1s,4R)-4-hydroxycyclohexyl)oxy)-5-methyl-4-oxo-2,3,4,5-tetrahydrobenzo[b][1,4]oxazepin-3-yl)-1H-pyrazole-1-carboxamide], the IC50 [1] is reported as < 10 nM and the IC50 [2] is reported as < 10 nM.

For `CN1C(=O)[C@@H](NC(=O)n2cc(Cc3cccc(F)c3)cn2)COc2ccc(O[C@H]3CC[C@H](O)CC3)cc21` [Example 35, 4-(3-fluorobenzyl)-N—((S)-7-(((1r,4S)-4-hydroxycyclohexyl)oxy)-5-methyl-4-oxo-2,3,4,5-tetrahydrobenzo[b][1,4]oxazepin-3-yl)-1H-pyrazole-1-carboxamide], the IC50 [1] was < 10 nM and the IC50 [2] was < 10 nM.

`CN1C(=O)[C@@H](NC(=O)n2cc(Cc3cccc(F)c3)cn2)COc2ccc(OCC(=O)N3CCCCC3)cc21` [Example 36, (S)-4-(3-fluorobenzyl)-N-(5-methyl-4-oxo-7-(2-oxo-2-(piperidin-1-yl)ethoxy)-2,3,4,5-tetrahydrobenzo[b][1,4]oxazepin-3-yl)-1H-pyrazole-1-carboxamide] was tested, and the IC50 [1] was < 10 nM and the IC50 [2] was < 10 nM.
